Assay results as given in article PMC4338433 (Scientific Reports, 2015).

Assays:
[1] = molecular target: H. contortus AVR-14B GluCl (wild-type) (Haemonchus contortus, UniProt O46124); assay type: cell-based; conditions: Wild-type AVR-14B GluCl, mean ± s.e.m.
Description: (§1) All mutant cDNAs were generated from AVR-14B cDNA in the T7 plasmid vector[45] by conventional PCR with Pfu DNA polymerase (Thermo Scientific, Germany) and commercially generated mutagenesis primers (Eurofins MWG Operon, Ebersberg, Germany). All cDNAs were sequenced to confirm the presence of appropriate mutations (Eurofins MWG Operon) and linearized with XbaI (Thermo Scientific). cRNAs were synthesized with the mMESSAGE mMACHINE T7 Kit (Life Technologies GmbH, Darmstadt, Germany). X. laevis oocytes were used for two electrode voltage-clamp electrophysiology as previously described[48] and under approval of the Technical University of Darmstadt (Agreement V54-19c20/15 DA8/Anz. 20). […] Non-linear regression parameters were compared to the respective WT value with Student's unpaired t tests (Prism4).

AVR-14B GluCl R76N = test: Two electrode voltage-clamp of Xenopus laevis oocytes expressing R76N mutant AVR-14B GluCl; assay type: cell-based, Haemonchus contortus
Description: as §1, with “20). After 2–5 days, oocytes were perfused with extracellular solution (115 mM NaCl, 1 mM KCl, 1.8 mM CaCl2, 10 mM HEPES, pH 7.4 with NaOH) alone or containing agonist, and currents were sampled at 1 kHz and filtered at 500 Hz with a Digidata 1322A digitizer, Geneclamp 500B amplifier and Clampex software (Molecular Devices, Sunnyvale, CA, USA).” for “20).”

AVR-14B GluCl Y248F = molecular target: T1, AVR-14B GluCl Y248F (Haemonchus contortus, UniProt O46124, Y248F); conditions: Y248F mutant, mean ± s.e.m.
T1 sequence (O46124 31-438 Y248F): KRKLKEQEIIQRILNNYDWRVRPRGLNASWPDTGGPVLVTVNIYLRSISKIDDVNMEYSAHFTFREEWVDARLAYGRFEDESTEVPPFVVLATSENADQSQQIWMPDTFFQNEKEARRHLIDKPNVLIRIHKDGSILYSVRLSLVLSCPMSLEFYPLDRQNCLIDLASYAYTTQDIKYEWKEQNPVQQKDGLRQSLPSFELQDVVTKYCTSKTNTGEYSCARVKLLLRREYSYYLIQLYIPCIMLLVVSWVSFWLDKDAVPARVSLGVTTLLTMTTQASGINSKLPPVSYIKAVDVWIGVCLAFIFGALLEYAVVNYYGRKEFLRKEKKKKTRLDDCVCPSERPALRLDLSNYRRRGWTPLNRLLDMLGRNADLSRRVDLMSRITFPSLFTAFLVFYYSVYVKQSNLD
Description: as §1

AVR-14B GluCl K219A = molecular target: T2, AVR-14B GluCl K219A (Haemonchus contortus, UniProt O46124, K219A); conditions: K219A mutant, mean ± s.e.m.
T2 sequence (O46124 31-438 K219A): T1 sequence (O46124 31-438 Y248F)
Description: as §1

AVR-14B GluCl T245A = molecular target: T3, AVR-14B GluCl T245A (Haemonchus contortus, UniProt O46124, T245A); conditions: T245A mutant, mean ± s.e.m.
T3 sequence (O46124 31-438 T245A): T1 sequence (O46124 31-438 Y248F)
Description: as §1

AVR-14B GluCl Q141R = molecular target: T4, AVR-14B GluCl Q141R (Haemonchus contortus, UniProt O46124, Q141R); conditions: Q141R mutant; mean ± s.e.m.
T4 sequence (O46124 31-438 Q141R): T1 sequence (O46124 31-438 Y248F)
Description: as §1

[2] = molecular target: T5, AVR-14B GluCl R76N/Q141R/K219A (RN/QR/KA) (Haemonchus contortus, UniProt O46124, K219A/Q141R/R76N); conditions: R76N/Q141R/K219A triple-mutant; mean ± s.e.m.
T5 sequence (O46124 31-438 R76N/Q141R/K219A): T1 sequence (O46124 31-438 Y248F)
Description: as §1

AVR-14B GluCl S169A = molecular target: T6, AVR-14B GluCl S169A (Haemonchus contortus, UniProt O46124, S169A); conditions: S169A mutant, mean ± s.e.m.
T6 sequence (O46124 31-438 S169A): T1 sequence (O46124 31-438 Y248F)
Description: as §1

AVR-14B GluCl A197E = test: Two electrode voltage-clamp of Xenopus laevis oocytes expressing A197E mutant AVR-14B GluCl; assay type: cell-based, Haemonchus contortus
Description: as §1, with “20). After 2–5 days, oocytes were perfused with extracellular solution (115 mM NaCl, 1 mM KCl, 1.8 mM CaCl2, 10 mM HEPES, pH 7.4 with NaOH) alone or containing agonist, and currents were sampled at 1 kHz and filtered at 500 Hz with a Digidata 1322A digitizer, Geneclamp 500B amplifier and Clampex software (Molecular Devices, Sunnyvale, CA, USA).” for “20).”

AVR-14B GluCl Y199F = test: Two electrode voltage-clamp of Xenopus laevis oocytes expressing Y199F mutant AVR-14B GluCl; assay type: cell-based, Haemonchus contortus; conditions: 1 μM ivermectin, mean ± s.e.m.
Description: as §1, with “20). After 2–5 days, oocytes were perfused with extracellular solution (115 mM NaCl, 1 mM KCl, 1.8 mM CaCl2, 10 mM HEPES, pH 7.4 with NaOH) alone or containing agonist, and currents were sampled at 1 kHz and filtered at 500 Hz with a Digidata 1322A digitizer, Geneclamp 500B amplifier and Clampex software (Molecular Devices, Sunnyvale, CA, USA).” for “20).”

AVR-14B GluCl R95A = test: Two electrode voltage-clamp of Xenopus laevis oocytes expressing R95A mutant AVR-14B GluCl; assay type: cell-based, Haemonchus contortus; conditions: 1 μM ivermectin, mean ± s.e.m.
Description: as §1, with “20). After 2–5 days, oocytes were perfused with extracellular solution (115 mM NaCl, 1 mM KCl, 1.8 mM CaCl2, 10 mM HEPES, pH 7.4 with NaOH) alone or containing agonist, and currents were sampled at 1 kHz and filtered at 500 Hz with a Digidata 1322A digitizer, Geneclamp 500B amplifier and Clampex software (Molecular Devices, Sunnyvale, CA, USA).” for “20).”

| Molecule | Glutamate nH ([1]; Hill coefficient) | Glutamate Imax ([1]; maximum glutamate-gated current) [μA] | Gating by glutamate (AVR-14B GluCl R76N; glutamate up to 100 mM) | Glutamate nH (AVR-14B GluCl Y248F; Hill coefficient) | Glutamate Imax (AVR-14B GluCl Y248F) [μA] | Glutamate nH (AVR-14B GluCl K219A; Hill coefficient) | Glutamate Imax (AVR-14B GluCl K219A) [μA] | Glutamate nH (AVR-14B GluCl T245A; Hill coefficient) | Glutamate Imax (AVR-14B GluCl T245A) [μA] | Glutamate Imax (AVR-14B GluCl Q141R) [μA] | Glutamate Imax [2] [μA] | Glutamate nH (AVR-14B GluCl S169A; Hill coefficient) | Glutamate Imax (AVR-14B GluCl S169A) [μA] | Glutamate-gated currents (AVR-14B GluCl A197E; effect of the A197E substitution) | Ivermectin Imax ([1]; 1 μM ivermectin) [μA] | Ivermectin Imax (AVR-14B GluCl R76N; 1 μM ivermectin, mean ± s.e.m.) [μA] | Ivermectin Imax (AVR-14B GluCl A197E; 1 μM ivermectin, A197E mutant, mean ± s.e.m.) [μA] | Ivermectin Imax (AVR-14B GluCl Y199F) [μA] | Ivermectin Imax (AVR-14B GluCl R95A) [μA] |
| --- | --- | --- | --- | --- | --- | --- | --- | --- | --- | --- | --- | --- | --- | --- | --- | --- | --- | --- | --- |
| N[C@@H](CCC(=O)O)C(=O)O [Glutamate] | 1.7 ± 0.2 | 3.1 ± 0.3 | not substantially gated | 1.9 ± 0.2 | 4.3 ± 0.8 | 2.1 ± 0.4 | 3.3 ± 0.5 | 2.0 ± 0.1 | 5.5 ± 0.8 | 1.1 ± 0.4 | 2.3 ± 0.3 | 1.8 ± 0.2 | 4.3 ± 1.1 | abolished | – | – | – | – | – |
| Ivermectin | – | – | – | – | – | – | – | – | – | – | – | – | – | – | 2.4 ± 0.4 | 3.6 ± 1.0 | 2.4 ± 0.7 | 0.7 ± 0.2 | 4.8 ± 1.9 |
